Measurements as given in paper PMC12610161, “Structural Engineering of Tyrosine-Based Neuroprotective Peptides: A New Strategy for Efficient Blood–Brain Barrier Penetration” (Foods, 2025).
“And” between values parts separate entries of the source, which are not always exact repeats. Identical values can stand only once. Like-named read-outs stand apart in the source and are kept apart here. Ends that are not written are not given here.

Assays:
[1] = Transwell in vitro BBB model, apparent permeability; format: in vitro ADME; conditions: mouse, 100 µM in upper chamber, bEnd.3 monolayer, RP-HPLC of lower chamber
Experimental: The method described by Han et al. was referenced and modified. Briefly, 500 µL of bEnd.3 cells at a density of 5 × 10^4 cells/mL were seeded in the upper chamber of Transwell (0.4 µm, 12-well, PET material), and 1.5 mL of DMEM was added to the lower chamber to ensure the upper and lower chambers were aligned. After cell adherence, the culture medium in the upper chamber was changed daily, while the culture medium in the lower chamber was changed every other day. Once the transendothelial electrical resistance (TEER) was > 200 Ω·cm^2, both the upper and lower chambers were replaced with serum-free DMEM. After 12 h, EV and TW peptides, solubilized in HBSS at a concentration of 100 µM, were added to the upper chamber. After 4 h, the samples were collected separately, and RP-HPLC detection, along with Origin 2021 mapping analysis, was performed. TEER and apparent permeability coefficient (Papp) were calculated as follows:TEER = (TEERsample − TEERcontrol) × Cell Culture Area(5) (6) Papp=∆C·V/∆t·C0·A(cm/s) where ΔC represents the concentration in the lower chamber (µM), V is the volume of the lower chamber (mL), Δt indicates the experimental time (s), C0 is the initial concentration in the upper chamber, and A is the membrane area of the Transwell (cm^2).

in vitro BBB model = conditions: cited from earlier work
[2] = parameters: method as in PMID 22934681; conditions: cited from earlier work
HT22 cells = format: cell-based; conditions: mouse, 24 h, 100 µM
Experimental: Mouse brain microvascular endothelial cells (bEnd.3) and mouse hippocampal neuron cells (HT22) were purchased from Zhong Qiao Xin Zhou Biological Technology Ltd. (Shanghai, China). Cells were cultured in DMEM (Cat # 11965092, Gibco, New York, USA) supplemented with 1% (v/v) penicillin/streptomycin (MA0110, MeilunBio, Dalian, China) and 10% (v/v) fetal bovine serum (C04001-500, Vivacell, Shanghai, China) in a 5% CO2 humidified incubator at 37 °C, and passaged every 2 days. When cell confluence reached 85–90%, cells were seeded into 6/12 well plates at a density of 1 × 10^5 cells/mL. Once the confluence reached 85–90% again, the cells were cultured in H2O2 medium at varying concentrations for 2 h as a model group. Cell viability was assessed using MTT at 0.1 mg/mL, and the optimal H2O2 concentration was determined when the cell viability approached 50%.
When cell confluence reached 80–90%, they were incubated with 100 µM EV peptides and TW peptides, respectively, for 24 h, followed by injury with 800 µM H2O2 for 2 h to observe the protective effect of the peptides. Among them, the model group was directly injured after 24 h of incubation with DMEM.

in vivo = conditions: C57/BJ, mouse, po
Experimental: Six C57/BJ mice were randomly selected, and the peptides [sequence] and [sequence] were administered via gavage, respectively. After 10 h, the mice were euthanized by cervical dislocation, and the brains were harvested. For analysis, 3 mL of normal saline was added to each gram of brain tissue, which was then homogenized. The sample was diluted in a ratio of 1:3 with methanol solution, mixed thoroughly, and centrifuged at 12,000 rpm for 10 min. The resulting supernatant was collected for RP-HPLC analysis.
(§1) Gradient elution was conducted with a mobile phase consisting of pure water with 0.1% TFA (mobile phase A) and acetonitrile containing 0.1% TFA (mobile phase B). […] This was performed for 25 min at a flow rate of 1 mL/min.

in vitro [3] = test: in vitro
Experimental: Walnut peptides were dissolved in distilled water to prepare a 100 µM aqueous solution. The pH was adjusted to 2.0, and pepsin was added to simulate gastric juice digestion. After 1 and 2 h in a 37 °C water bath, 1 mL of the sample was taken and stored at 4 °C for subsequent use. The pH of the remaining solution was then adjusted to 7.0, and 5 mg/mL trypsin was added to simulate intestinal digestion. After 1 and 2 h in a 37 °C water bath, 1 mL samples were taken, filtered through a 0.22 µm pore size membrane, and analyzed via RP-HPLC.
as §1

in vitro [4] = conditions: KM, mouse, plasma; for half-life at 166.7 µM: In vitro plasma half-life
Experimental: The plasma half-life was evaluated utilizing KM mice (20 ± 2 g) obtained from Changsheng Biotechnology Co., Ltd. (Benxi, Liaoning, China). After the adaptation period, the mice were euthanized by cervical dislocation. Blood was collected from the heart and immediately transferred into an EP tube containing heparin sodium. After standing for 2 h, the plasma was separated by centrifugation at 4500 rpm at 4 °C for 15 min. A 500 µL aliquot of 500 µM peptide solution was added to 1 mL of blank plasma, mixed thoroughly by vortexing, and methanol was added in a 1:3 ratio. After vortexing for 1 min, the mixture was centrifuged at 12,000 rpm for 10 min, and the resulting supernatant was collected for RP-HPLC analysis.
Gradient elution was conducted with a mobile phase consisting of pure water with 0.1% TFA (mobile phase A) and acetonitrile containing 0.1% TFA (mobile phase B). The elution process for mobile phase B was as follows: [sequence]: 10−35%, [sequence]: 8−33%, [sequence]: 5−30%, [sequence]: 4−29%, TWLPLPR: 24−49%, TWLPYPR: 21−46%, TWLPRPR: 16−41%, TWLPKPR: 15−40%, YVPFPLP, YVPFPYP: 11–34%. This was performed for 25 min at a flow rate of 1 mL/min.

[5] = DPPH radical scavenging activity; conditions: substrate concentration 1 mg/mL (printed for EV peptides); 30 min, 517 nm
Experimental: A modified DPPH scavenging assay was conducted following the method described by Shen et al.. 0.0023 g of DPPH was mixed with 100 mL of 95% absolute ethanol to prepare a 60 µmol/L DPPH radical working solution. The sample was then mixed with 60 µmol/L DPPH free radical working solution at a 1:1 (v/v) ratio, mixed thoroughly, and allowed to stand in the dark for 30 min. The mixture was then centrifuged at 4500 rpm for 10 min. The absorbance was measured at a wavelength of 517 nm and compared with an equivalent concentration of GSH. The DPPH radical scavenging rate was calculated using the following formula:(1) DPPH radical scavenging ratio % = 1−Aa−Ab/Ac×100% where Aa represents the absorbance value of EV, TW and YV peptides solution added to DPPH scavenging radical working solution; Ab denotes the absorbance value of the solution with 95% (v/v) absolute ethanol and the […] scavenging radical working solution; Ac is the absorbance value after mixing distilled water and DPPH in equal volumes of 1:1.

[6] = ABTS radical scavenging activity; conditions: 1 mg/mL; 6 min, 734 nm
Experimental: ABTS scavenging radical determination was conducted following the procedure of Li et al. with slight modifications. A 7 mmol/L aqueous solution of ABTS and a 2.49 mmol/L aqueous solution of potassium persulfate were mixed in a 1:1 ratio. The mixture was allowed to stand in the dark at 4 °C for 12–16 h. The concentration was adjusted using 5 mmol/L PBS (pH 7.4) to ensure that the absorbance of the ABTS radical stock solution was 0.700 ± 0.002 at a wavelength of 734 nm. EV and TW peptide aqueous solutions (10 µL), each at a concentration of 1 mg/mL, were taken. A glutathione aqueous solution with the same substrate concentration was used as the control group. After adding the samples to a black 96-well plate, 190 µL of ABTS free radical working solution was added to each well. The absorbance at 734 nm was measured using a microplate reader after a 6 min reaction.
The ABTS clearance was calculated as follows:(2) ABTS radical scavenging rate % = 1−Aa−Ab/Ac×100% where Aa represents the sample; Ab represents the absorbance of the solution in which the ABTS working solution was substituted with 5 mmol/L PBS; Ac represents the absorbance of the blank group.

[7] = Oxygen radical absorbance capacity (ORAC) assay; conditions: substrate concentration 1 mg/mL (printed for EV peptides)
Experimental: ORAC assay was performed based on the technique of Simon et al., with minor modifications. First, in black 96-well plates, 25 µL of PBS buffer (75 mmol/L, pH 7.4), 25 µL of Trolox standard solutions (at concentrations of 6.25 µM, 12.5 µM, 25 µM, 50 µM), and the peptide solution were added at a 1:1 volume ratio. Then, the samples were incubated at 37 °C for 10 min. Subsequently, 150 µL of […] sodium fluorescein was added to all wells and incubated at 37 °C for 20 min. Following this, 25 µL of 6 mmol/L azobisisobutyramidine hydrochloride (AAPH) solution was quickly added to each well. Two control groups were established: one consisted of a black 96-well plate with free radicals (+AAPH), while the other group included a black 96-well plate without free radicals (−AAPH). Both plates were placed in a microplate reader and shaken for 5 s. The excitation wavelength was set to 485 ± 20 nm, and the emission wavelength was set to 530 ± 10 nm. The entire system was set at 37 °C, and the fluorescence intensity was measured every 2 min. […]
The measurement results were expressed as ORAC values using the following formula:ORAC value = [(AUCpeptide − AUCblank)/(AUtrolox − AUCblank)] × Ctrolox/Cpeptide(4) […]

[8] = parameters: method as in PMID 29463072; conditions: cited from earlier work

TWLPKPR [TWLPKPR]
Papp A→B at 4 h, 100 µM [1]: 3.45 ×10⁻⁶ cm/s

EVSGPGKSPN [EVSGPGKSPN]
Papp A→B at 4 h, 100 µM [1]: 1.36 ×10⁻⁶ cm/s

TWLPYPR [TWLPYPR]
Papp A→B at 4 h, 100 µM [1]: 7.06 ×10⁻⁶ cm/s

Gly-Sar
Apparent permeability (in vitro BBB model): 7.60 ± 1.29 µL/g/min

YVPFPLP [YVPFPLP]
Papp A→B at 4 h, 100 µM [1]: 0.999 ×10⁻⁶ cm/s

H-Tyr-D-Ala-Gly-MePhe-Gly-ol
Plasma half-life ([2]; embedded and delivered with GSH-PEG liposomes): 6.9 ± 2.3 h
Plasma half-life ([2]; free peptide): 0.153 ± 0.035 h

YVPFPYP [YVPFPYP]
Papp at 4 h, 100 µM [1]: 3.62 ×10⁻⁶ cm/s

EVSGPGLSPN [EVSGPGLSPN]
Papp at 4 h, 100 µM [1]: 3.78 ×10⁻⁶ cm/s
Cell viability (MTT) (HT22 cells): 78.63 ± 0.86%
tissue level at time at 10 h (in vivo): 250 ± 110 ng/g
recovery at 100 µM (in vitro [3]): 19.5 ± 3.33%
metabolised at 48 h, 167 µM (in vitro [4]): 2.23%
remaining at 1 h, 167 µM (in vitro [4]): 99.75 ± 0.35%
remaining at 2 h, 167 µM (in vitro [4]): 99 ± 0.75%
remaining at 4 h, 167 µM (in vitro [4]): 98.13 ± 0.06%
remaining at 8 h, 167 µM (in vitro [4]): 97.86 ± 0.49%
remaining at 12 h, 167 µM (in vitro [4]): 96.86 ± 0.5%
remaining at 24 h, 167 µM (in vitro [4]): 95.62 ± 0.64%
remaining at 36 h, 167 µM (in vitro [4]): 94.96 ± 0.36%
remaining at 48 h, 167 µM (in vitro [4]): 94.77 ± 0.64%
half-life at 166.7 µM (in vitro [4]): > 48 h

TWLPLPR [TWLPLPR]
Papp A→B at 4 h, 100 µM [1]: 6.85 ×10⁻⁶ cm/s

N[C@@H](CCC(=O)N[C@@H](CS)C(=O)NCC(=O)O)C(=O)O [GSH, glutathione]
DPPH radical scavenging rate [5]: 70.98 ± 1.09% and 70 ± 1.09%
ABTS radical scavenging rate [6]: 73.20 ± 2.54%
ORAC value [7]: 1003.3 ± 18.6 µmol TE/g

eveltivir
Maximum concentration in the brain [8]: 46.5 ± 3.5 ng/g

EVSGPGYSPN [EVSGPGYSPN]
Papp at 4 h, 100 µM [1]: 8.1 ×10⁻⁶ cm/s
Cell viability (MTT) (HT22 cells): 86.88 ± 3.18%
tissue level at time at 10 h (in vivo): 1250 ± 910 ng/g
recovery at 100 µM (in vitro [3]): 13.99 ± 0.02%
remaining at 1 h, 167 µM (in vitro [4]): 96.64 ± 0.53%
remaining at 2 h, 167 µM (in vitro [4]): 92.42 ± 0.74%
remaining at 4 h, 167 µM (in vitro [4]): 80.5 ± 0.65%
remaining at 8 h, 167 µM (in vitro [4]): 58.64 ± 0.52%
remaining at 12 h, 167 µM (in vitro [4]): 51 ± 0.64%
remaining at 24 h, 167 µM (in vitro [4]): 24.3 ± 1.94%
remaining at 36 h, 167 µM (in vitro [4]): 0%
remaining at 48 h, 167 µM (in vitro [4]): 0%
half-life at 166.7 µM (in vitro [4]): > 12 h
